In publication PMC8046379, “Fragment binding to the Nsp3 macrodomain of SARS-CoV-2 identified through crystallographic screening and computational docking” (Science Advances, 2021):

Legend:
Format in all cases: binding
SARS-CoV-2 Nsp3 Mac1 [1] = biological target: T1, SARS-CoV-2 Nsp3 Mac1 (Severe acute respiratory syndrome coronavirus 2, UniProt P0DTD1); settings: fragments 0.188 to 3 mM concentration response
SARS-CoV-2 Nsp3 Mac1 [2] = biological target: T1, SARS-CoV-2 Nsp3 Mac1; assay: biochemical; settings: ADPr-peptide displacement from His6-Mac1; ± estimated SE
SARS-CoV-2 Nsp3 Mac1 [3] = biological target: T1, SARS-CoV-2 Nsp3 Mac1; assay: biochemical

| Compound | effect on apparent melting temperature (Tma) in DSF, in words (SARS-CoV-2 Nsp3 Mac1 [1]) | IC50 (SARS-CoV-2 Nsp3 Mac1 [2]) [µM] | Kd (SARS-CoV-2 Nsp3 Mac1 [3]) [µM] |
| --- | --- | --- | --- |
| Cc1c(C)n(Cc2ccco2)c2ncnc(N)c12 [ZINC3888754] | stabilized Mac1 | – | – |
| Cn1cnc2c(N)nc(N)nc21 [ZINC26180281] | stabilized Mac1 | > 2000 | 2900 ± 700 |
| CN(CC1CCCOC1)c1ncc(O)cn1 (stereo not drawn) [ZINC1337772170] | not identified as binders | 971 | – |
| Nc1nc2nccnc2c(=O)[nH]1 [pterin] | not identified as binders | 784 | – |
| adenosine diphosphate ribose [ADP-ribose, reference compound] | substantial elevation | – | – |
